Test [1] deals with T1, Human PD-L1/PD-1 (Homo sapiens, UniProt Q9NZQ7).
T1 construct: made in house; host or cells: HEK293T
Nature of the test: HTRF PD-1-Ig/PD-L1-His binding assay (human PD-L1). In a few lines:
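Interaction of Fc-tagged soluble PD-1 with His-tagged soluble PD-L1 is monitored by time-resolved FRET. Donor is europium cryptate anti-Ig (1 nM final) and acceptor is APC anti-His (20 nM final). Assay buffer is dPBS with 0.1% BSA and 0.05% Tween-20.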
For orientation: Time-resolved FRET reads energy transfer from a long-lived donor to a nearby acceptor.

The target in test [2] is T2, LK35.2-hPD-L1 cells / PE-labeled PD-1-Ig (Homo sapiens, UniProt Q9NZQ7).
T2 construct: expressed in transfected cells; host or cells: LK35.2 mouse B cell line
The test can be described thus: LK35.2-hPD-L1 cell binding high-content screening assay. Format: cell-based. The method, then:
LK35.2-hPD-L1 Cell Binding High-Content Screening Assay. Phycoerythrin (PE) was covalently linked to the Ig epitope tag of human PD-1-Ig and fluorescently-labeled PD-1-Ig was used for binding studies with a mouse B cell line (LK35.2) stably over-expressing human PD-L1 (LK35.2-hPD-L1). Briefly, 3×10^3 LK35.2-hPD-L1 cells were seeded into 384 well plates in 20 ul of RPMI supplemented with 10% fetal calf serum and cultured overnight. 125 nl of compound was added to cells, followed by 5 ul of PE-labeled PD-1-Ig (1 nM final), diluted in RPMI supplemented with 10% fetal calf serum, followed by incubation at 37° C. for 1 h. […] Cells were washed 3× in 100 ul of dPBS followed by final addition of 15 ul of dPBS. Data was collected and processed using a Cell Insight NXT High Content Imager and associated software.

[3] abbreviates: cluster symbol, read-out: HTRF IC50 cluster.
The mark [4] stands for this setting: cell binding assay, cell line not given, cluster symbol, read-out: CBA IC50 cluster.
Where [5] appears, read: Table 8, Compound No. 1 variant macrocyclic peptides, read-out: HTRF Human PD-L1/PD-1 Binding Assay IC50.

Where two headings read alike, the source gives them in different places. Positions of bridges follow the written chain, without caps; N, C: chain ends. Non-standard residues stand in square brackets, D forms with d. Residues, ends and D or L forms follow the SMILES beside them. ξ: configuration not given here. Pro(cis-4-Ph) = O=C(O)[C@@H]1C[C@H](c2ccccc2)CN1; Phe(3-Me) = Cc1cccc(C[C@H](N)C(=O)O)c1; Hyp = O=C(O)[C@@H]1C[C@@H](O)CN1; NMeF = CN[C@@H](Cc1ccccc1)C(=O)O; dHyp = O=C(O)[C@H]1C[C@H](O)CN1; NMeNle = CCCC[C@H](NC)C(=O)O; NMeM = CN[C@@H](CCSC)C(=O)O; NMeS = CN[C@@H](CO)C(=O)O; NMeA = CN[C@@H](C)C(=O)O; Dap = NC[C@H](N)C(=O)O; ξP = O=C(O)C1CCCN1; ξC = NC(CS)C(=O)O; Sar = CNCC(=O)O Bounds are passed on as bounds.

T1 sequence (Q9NZQ7 with tags, fused parts or gaps): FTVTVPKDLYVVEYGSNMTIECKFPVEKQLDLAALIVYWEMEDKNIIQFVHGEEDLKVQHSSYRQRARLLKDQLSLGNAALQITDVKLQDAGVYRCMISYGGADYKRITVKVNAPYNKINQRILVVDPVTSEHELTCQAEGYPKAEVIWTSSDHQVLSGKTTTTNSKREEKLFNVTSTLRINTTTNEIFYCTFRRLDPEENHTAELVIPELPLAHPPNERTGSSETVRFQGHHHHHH
T2 sequence (Q9NZQ7 19-290): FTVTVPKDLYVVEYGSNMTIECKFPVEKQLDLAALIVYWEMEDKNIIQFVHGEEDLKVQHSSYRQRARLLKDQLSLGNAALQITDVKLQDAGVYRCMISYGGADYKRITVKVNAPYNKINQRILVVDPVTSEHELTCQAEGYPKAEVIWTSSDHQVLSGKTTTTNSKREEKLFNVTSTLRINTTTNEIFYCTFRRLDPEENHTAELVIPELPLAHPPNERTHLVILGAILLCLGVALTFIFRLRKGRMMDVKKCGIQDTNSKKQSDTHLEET

With `CCCC[C@H]1C(=O)N(C)CC(=O)N[C@@H](CC(=O)O)C(=O)N[C@@H](C(C)C)C(=O)N(C)[C@@H](Cc2ccccc2)C(=O)N[C@@H](Cc2ccc(O)cc2)C(=O)N(C)CC(=O)N[C@@H](Cc2c[nH]c3ccccc23)C(=O)N(C)[C@@H](Cc2ccc(O)cc2)C(=O)N[C@@H](CC(C)C)C(=O)N[C@H](C(=O)NCC(N)=O)CSCC(=O)N[C@@H](Cc2ccccc2)C(=O)N(C)[C@@H](Cc2ccccc2)C(=O)N1C` [Example 3566] (HELM PEPTIDE1{[O=C(C[*:3])[*:2]].F.[meF].[CCCC[C@@H](C(=O)[*:2])N(C)[*:1]].[Sar].D.V.[meF].Y.[Sar].W.[meY].L.C.G.[am]}$PEPTIDE1,PEPTIDE1,1:R3-14:R3$$$V2.0), the IC50 in test [1] (setting [3]) was more than 0.0305 µM; in test [2] (setting [4]) it was more than 0.0743 µM. As for `CCCC[C@H]1C(=O)N(C)[C@@H](CCCC)C(=O)N[C@@H](CCCNC(=N)N)C(=O)N[C@H](C(=O)NCC(N)=O)CSCC(=O)N[C@@H](Cc2cccc(C)c2)C(=O)N(C)[C@@H](C)C(=O)N[C@@H](CC(N)=O)C(=O)N2CCC[C@H]2C(=O)N[C@@H](CN)C(=O)N[C@@H](CC(C)C)C(=O)N2C[C@H](O)C[C@H]2C(=O)N[C@@H](Cc2c[nH]c3ccccc23)C(=O)N[C@@H](CO)C(=O)N[C@@H](Cc2c[nH]c3ccccc23)C(=O)N1C` [Example 7035] ({CH2CO}-[Phe(3-Me)][NMeA]NP[Dap]L[Hyp]WSW[NMeNle][NMeNle]RCG-NH2; thioether N-14), the IC50 in test [1] (setting [3]) is 0.000385 to 0.00674 µM; in test [2] (setting [4]) it was 0.00478 to 0.0729 µM. As for `CC(C)C[C@@H]1NC(=O)[C@H](Cc2cnc[nH]2)NC(=O)[C@@H]2CCCN2C(=O)[C@H](CC(N)=O)NC(=O)[C@H](C)N(C)C(=O)[C@H](Cc2ccccc2)NC(=O)CSC[C@@H](C(=O)NCC(N)=O)NC(=O)[C@H](CCCNC(=N)N)NC(=O)[C@H](C)N(C)C(=O)[C@H](CCCc2ccccc2)NC(=O)[C@H](Cc2c[nH]c3ccccc23)NC(=O)[C@H](CO)NC(=O)[C@H](Cc2c[nH]c3ccccc23)NC(=O)CN(C)C1=O` [Example 1108] (HELM PEPTIDE1{[O=C(C[*:3])[*:2]].F.[meA].N.P.H.L.[Sar].W.S.W.[O=C([C@H](CCCc1ccccc1)N[*:1])[*:2]].[meA].R.C.G.[am]}$PEPTIDE1,PEPTIDE1,1:R3-15:R3$$$V2.0), the IC50 in test [1] (setting [3]) was more than 0.0305 µM; in test [2] (cluster symbol, cell line of CBA not given (LK35.2-hPD-L1 or 293T-hPD-L1), read-out: CBA IC50 cluster) it was more than 0.0743 µM. In the case of `CCCC[C@H]1C(=O)N(C)CC(=O)N[C@@H](CC(=O)O)C(=O)N[C@@H](C(C)C)C(=O)N(C)[C@@H](Cc2ccccc2)C(=O)N[C@@H](Cc2ccc(O)cc2)C(=O)N2C[C@@H](O)C[C@@H]2C(=O)N[C@@H](Cc2c[nH]c3ccccc23)C(=O)N[C@@H](Cc2ccc(O)cc2)C(=O)N[C@@H](CC(C)C)C(=O)N[C@H](C(=O)NCC(N)=O)CSCC(=O)N[C@@H](Cc2ccccc2)C(=O)N(C)[C@@H](Cc2ccccc2)C(=O)N1C` [Example 3583] ({CH2CO}-F[NMeF][NMeNle][Sar]DV[NMeF]Y[dHyp]WYLCG-NH2; thioether N-13), in test [2] (setting [4]), the IC50 lay within 0.000158 to 0.00471 µM.

As for `CCCC[C@H]1C(=O)N[C@@H](CCCNC(=N)N)C(=O)NC(C(=O)NCC(N)=O)CSCC(=O)N[C@@H](Cc2ccc(O)cc2)C(=O)N(C)[C@@H](C)C(=O)N[C@@H](CC(N)=O)C(=O)N2CCC[C@H]2C(=O)N[C@@H](CN)C(=O)N[C@@H](CC(C)C)C(=O)N2CCC[C@H]2C(=O)N[C@@H](Cc2c[nH]c3ccccc23)C(=O)N[C@@H](CO)C(=O)N[C@@H](Cc2c[nH]c3ccccc23)C(=O)N(C)[C@@H](CCSC)C(=O)N1C` (some centres unmarked) [Example 9097] ({CH2CO}-Y[NMeA]NP[Dap]LPWSW[NMeM][NMeNle]R[ξC]G-NH2; thioether N-14), in test [2] (setting [4]), the IC50 fell in the range of 0.00478 to 0.0729 µM. For `CCCC[C@H]1C(=O)N(C)[C@@H](CCCC)C(=O)N[C@@H](CCC(=O)O)C(=O)N[C@H](C(=O)NCC(N)=O)CSCC(=O)N[C@@H](Cc2ccc(O)cc2)C(=O)N(C)[C@@H](C)C(=O)N[C@@H](CC(=O)O)C(=O)N2CCC[C@H]2C(=O)N[C@@H](Cc2c[nH]cn2)C(=O)N[C@@H](CCCCN)C(=O)N2C[C@@H](c3ccccc3)C[C@H]2C(=O)N[C@@H](Cc2c[nH]c3ccccc23)C(=O)N[C@@H](CCCCN)C(=O)N[C@@H](Cc2c[nH]c3ccccc23)C(=O)N1C` [Example 13006] ({CH2CO}-Y[NMeA]DPHK[Pro(cis-4-Ph)]WKW[NMeNle][NMeNle]ECG-NH2; thioether N-14), the IC50 in test [2] (cell binding assay, cell line not given, value given instead of cluster, read-out: CBA IC50 value) turned out to be 0.00146 µM. On to `CCCC[C@H]1C(=O)N(C)[C@@H](CCCC)C(=O)N[C@@H](CCCNC(=N)N)C(=O)N[C@H](C(N)=O)CSCC(=O)N[C@@H](Cc2ccccc2)C(=O)N(C)[C@@H](C)C(=O)N[C@@H](CC(N)=O)C(=O)N2CCCC2C(=O)N[C@@H](Cc2cnc[nH]2)C(=O)N[C@@H](CC(C)C)C(=O)N(C)CC(=O)N[C@@H](Cc2c[nH]c3ccccc23)C(=O)N[C@@H](CO)C(=O)N[C@@H](Cc2c[nH]c3ccccc23)C(=O)N1C` (some centres unmarked) [Compound No. 24] ({CH2CO}-F[NMeA]N[ξP]HL[Sar]WSW[NMeNle][NMeNle]RC-NH2; thioether N-14), for which the IC50 in test [1] (setting [5]) was found to be 0.009 µM. For `CC[C@H](C)[C@@H]1NC(=O)[C@H](C(C)C)NC(=O)[C@H]([C@@H](C)CC)NC(=O)[C@@H](Cc2ccccc2)NC(=O)[C@H](Cc2ccccc2)NC(=O)CSC[C@@H](C(=O)NCC(N)=O)NC(=O)[C@H](CCCNC(=N)N)NC(=O)[C@H](Cc2ccccc2)NC(=O)[C@H](C(C)C)NC(=O)[C@H](CCCNC(=N)N)NC(=O)[C@H](CC(=O)O)NC(=O)[C@H](CCCNC(=N)N)NC1=O` [Compound No. 102] (HELM PEPTIDE1{[O=C(C[*:3])[*:2]].F.[dF].I.V.I.R.D.R.V.F.R.C.G.[am]}$PEPTIDE1,PEPTIDE1,1:R3-13:R3$$$V2.0), the IC50 in test [1] (Table 7, Compound No. 99 variant macrocyclic peptides, read-out: HTRF Human PD-L1/PD-1 Binding Assay IC50) was more than 20 µM. Turning to `CCCC[C@H]1C(=O)N(C)[C@@H](CCCC)C(=O)N[C@@H](CCCNC(=N)N)C(=O)N[C@@H](C(=O)NCC(N)=O)CSCC(=O)N[C@@H](Cc2c[nH]c3ccccc23)C(=O)N(C)[C@@H](C)C(=O)N[C@@H](CC(N)=O)C(=O)N2CCC[C@H]2C(=O)N[C@@H](Cc2cnc[nH]2)C(=O)N[C@@H](CC(C)C)C(=O)N(C)CC(=O)N[C@@H](Cc2c[nH]c3ccccc23)C(=O)N[C@@H](CO)C(=O)N[C@@H](Cc2c[nH]c3ccccc23)C(=O)N1C` [Compound No. 25] ({CH2CO}-W[NMeA]NPHL[Sar]WSW[NMeNle][NMeNle]R[dC]G-NH2; thioether N-14), the IC50 in test [1] (setting [5]) came to 0.027 µM. For the compound `CCCC[C@H]1C(=O)N(C)[C@@H](CCCC)C(=O)N[C@@H](CCCNC(=N)N)C(=O)N[C@H](C(=O)NCC(N)=O)CSCC(=O)N[C@@H](Cc2ccccc2)C(=O)N(C)[C@@H](C)C(=O)N[C@@H](CC(N)=O)C(=O)N2CCC[C@H]2C(=O)N[C@@H](Cc2cnc[nH]2)C(=O)N[C@@H](CC(C)C)C(=O)N(C)CC(=O)N[C@@H](Cc2c[nH]c3ccccc23)C(=O)N[C@@H](CO)C(=O)N[C@@H](CCSC)C(=O)N1C` [Compound No. 61] ({CH2CO}-F[NMeA]NPHL[Sar]WSM[NMeNle][NMeNle]RCG-NH2; thioether N-14), in test [1] (setting [5]), the IC50 is 0.031 µM.

Take `CCCC[C@H]1C(=O)N(C)[C@@H](CCCC)C(=O)N[C@@H](CCCNC(=N)N)C(=O)N[C@H](C(=O)NCC(N)=O)CSCC(=O)N[C@@H](Cc2ccccc2)C(=O)N(C)[C@@H](C)C(=O)N[C@@H](CC(N)=O)C(=O)N2CCC[C@H]2C(=O)N[C@@H](Cc2cnc[nH]2)C(=O)N[C@@H](CC(C)C)C(=O)N(C)[C@@H](CO)C(=O)N[C@@H](Cc2c[nH]c3ccccc23)C(=O)N[C@@H](CO)C(=O)N[C@@H](Cc2c[nH]c3ccccc23)C(=O)N1C` [Compound No. 56] ({CH2CO}-F[NMeA]NPHL[NMeS]WSW[NMeNle][NMeNle]RCG-NH2; thioether N-14): in test [1] (setting [5]), the IC50 was determined as 0.013 µM.

The values are drawn from patent US9850283B2, “Macrocyclic inhibitors of the PD-1/PD-L1 and CD80(B7-1)/PD-L1 protein/protein interactions” (BRISTOL-MYERS SQUIBB COMPANY, priority 2013, dated 2017).
